EPA's ToxRefDB 2

What was measured:
[1] = test system: rat; conditions: Subchronic oral toxicity in rodents, sprague dawley, Gavage/Intubation, dose end: 90 day, group: systemic
[2] = test system: mouse; conditions: Subchronic oral toxicity in rodents, b6c3f1, Gavage/Intubation, dose end: 17 week, group: systemic
[3] = test system: rat; conditions: Combined chronic toxicity/carcinogenicity; fischer; Oral; Gavage/Intubation; dose end: 104 week; group: systemic; systemic / pathology microscopic / stomach / hyperplasia + systemic / pathology microscopic / clitoral gland / hyperplasia + systemic / …
[4] = test system: mouse; conditions: Combined chronic toxicity/carcinogenicity, b6c3f1, Oral, Gavage/Intubation, dose end: 104 week, group: systemic
[5] = test system: rat; conditions: Subchronic oral toxicity in rodents, sprague dawley, Water, dose end: 90 day, group: systemic
[6] = test system: mouse; conditions: Combined chronic toxicity/carcinogenicity; b6c3f1; Oral; Gavage/Intubation; dose end: 104 week; group: systemic; systemic / pathology microscopic / stomach / hyperkeratosis + systemic / pathology microscopic / stomach / hyperplasia + systemic / …
[7] = test system: rat; conditions: Sub-acute repeat dose toxicity, sprague dawley, Oral, Gavage/Intubation, dose end: 10 day, group: systemic
[8] = test system: rat; conditions: Multigenerational reproductive toxicity study, other, Inhalation, Whole-Body, dose end: 1 generation
[9] = test system: mouse; conditions: Multigenerational reproductive toxicity study, cd1, Oral, Gavage/Intubation, dose end: 2 generation
[10] = test system: rat; conditions: Subchronic oral toxicity in rodents, fischer, Gavage/Intubation, dose end: 17 week, group: systemic
[11] = test system: rat; conditions: Sub-acute repeat dose toxicity, other, Inhalation, Whole-Body, dose end: 4 week, group: systemic
[12] = test system: rat; conditions: Subchronic inhalation toxicity, other, Whole-Body, dose end: 13 week, group: systemic
[13] = test system: rat; conditions: Combined chronic toxicity/carcinogenicity, fischer, Oral, Gavage/Intubation, dose end: 104 week, group: systemic
[14] = test system: rat; conditions: Subchronic inhalation toxicity, other, Whole-Body, dose end: 13 week, group: systemic; remark: listed apart in the source
[15] = test system: rat; conditions: Developmental neurotoxicity study, long evans, Injection, Intraperitoneal, dose end: 66 PND, group: cannot be grouped
[16] = test system: rat; conditions: Developmental neurotoxicity study; long evans; Injection; Intraperitoneal; dose end: 18 PND; group: cannot be grouped; systemic / pathology gross / brain / reduced size + systemic / pathology microscopic / brain / depletion cellular
[17] = test system: rat; conditions: Developmental neurotoxicity study; long evans; Injection; Intraperitoneal; dose end: 21 PND; group: cannot be grouped; systemic / in life observation / body weight / offspring (pup) weight
[18] = test system: rat; conditions: Developmental neurotoxicity study, long evans, Injection, Intraperitoneal, dose end: 122 PND, group: cannot be grouped
[19] = test system: rat; conditions: Prenatal developmental toxicity study; wistar; Oral; Gavage/Intubation; dose end: 21 GD; group: developmental; systemic / in life observation / body weight / fetal weight + developmental / developmental landmark / anogenital distance (agd) / …
[20] = test system: mouse; conditions: Sub-acute repeat dose toxicity, b6c3f1, Oral, Gavage/Intubation, dose end: 14 day, group: systemic
[21] = test system: rat; conditions: Subchronic oral toxicity in rodents, fischer, Gavage/Intubation, dose end: 13 week, group: systemic
[22] = test system: mouse; conditions: Subchronic oral toxicity in rodents, b6c3f1, Gavage/Intubation, dose end: 13 week, group: systemic
[23] = systemic / pathology microscopic / heart / inflammation + systemic / pathology microscopic / heart / necrosis
[24] = systemic / pathology microscopic / heart / inflammation + systemic / pathology microscopic / heart / necrosis + systemic / clinical …
[25] = systemic / pathology microscopic / lung / regeneration + systemic / pathology microscopic / stomach / acanthosis + systemic / pathology …
[26] = systemic / pathology microscopic / harderian gland / adenoma + systemic / pathology microscopic / liver / hepatocellular adenoma + systemic…
[27] = systemic / pathology microscopic / stomach / squamous cell carcinoma + systemic / pathology microscopic / stomach / squamous cell papilloma…
[28] = systemic / clinical chemistry / aminopyrine-n-demethylase / aminopyrine-n-demethylase + systemic / clinical chemistry / cholesterol / …
[29] = systemic / clinical chemistry / urea nitrogen / urea nitrogen + systemic / organ weight / kidney / relative to body weight
[30] = systemic / clinical chemistry / urea nitrogen / urea nitrogen + systemic / organ weight / kidney / relative to body weight + systemic / …
[31] = group: parental, systemic / in life observation / body weight / body weight + systemic / in life observation / body weight / body weight gain
[32] = group: reproductive, reproductive / reproductive performance / mating / mating
[33] = group: offspring, systemic / in life observation / body weight / offspring (pup) weight + systemic / in life observation / water consumption / water …
[34] = group: offspring, systemic / organ weight / kidney / relative to body weight + systemic / organ weight / liver / relative to body weight
[35] = group: parental, systemic / in life observation / body weight / body weight + systemic / in life observation / water consumption / water consumption + …
[36] = group: reproductive, reproductive / reproductive performance / estrous cycle / length
[37] = group: reproductive, reproductive / reproductive performance / fertility / fertility + reproductive / reproductive performance / gestational length / gestational…
[38] = systemic / clinical chemistry / [other] / [other] + systemic / hematology / erythrocyte (rbc) count differential / erythrocyte (rbc) + …
[39] = systemic / in life observation / body weight / body weight + systemic / in life observation / body weight / body weight gain + systemic / in…
[40] = systemic / in life observation / body weight / body weight gain + systemic / organ weight / liver / absolute + systemic / organ weight / …
[41] = systemic / hematology / leukocyte (wbc) count differential / leukocyte (wbc) + systemic / in life observation / body weight / body weight + …
[42] = systemic / pathology microscopic / lung / hyperplasia + systemic / pathology microscopic / spleen / hematopoietic cell proliferation + …
[43] = systemic / pathology microscopic / clitoral gland / adenoma + systemic / pathology microscopic / clitoral gland / adenoma/carcinoma combined…
[44] = systemic / pathology microscopic / stomach / squamous cell papilloma + systemic / pathology microscopic / pancreas / hyperplasia + systemic…
[45] = systemic / hematology / platelet / platelet + systemic / in life observation / clinical signs / lacrimation
[46] = systemic / in life observation / clinical signs / lacrimation
[47] = systemic / clinical chemistry / [other] / [other] + systemic / clinical chemistry / protein / protein + systemic / in life observation / …
[48] = systemic / clinical chemistry / [other] / [other] + systemic / clinical chemistry / protein / protein + systemic / organ weight / brain / …
[49] = systemic / in life observation / body weight / offspring (pup) weight + systemic / in life observation / clinical signs / [other] + systemic…
[50] = systemic / organ weight / brain / nos
[51] = systemic / organ weight / stomach / nos + systemic / pathology microscopic / stomach / hyperplasia + systemic / pathology microscopic / …
[52] = systemic / pathology microscopic / stomach / hyperplasia
[53] = systemic / pathology microscopic / stomach / hyperplasia + systemic / organ weight / stomach / absolute + systemic / organ weight / stomach…

ClCC(Cl)CCl [1,2,3-Trichloropropane]
LEL [1, 23]: 0.00147 mg/kg/day | NEL [1, 23]: < 0.00147 mg/kg/day | LOAEL [1, 24]: > 0.059 mg/kg/day | NOAEL [1, 24]: ≥ 0.059 mg/kg/day | LEL ([2]; systemic / organ weight / liver / absolute): 32 mg/kg/day | NEL ([2]; systemic / organ weight / liver / absolute + systemic / in life observation / body weight / body weight gain + systemic / in life …): 16 mg/kg/day | LOAEL [2, 25]: 63 mg/kg/day | NOAEL [2, 25]: 32 mg/kg/day | LEL [3]: 3 mg/kg/day | LOAEL [3]: 3 mg/kg/day | NEL [3]: < 3 mg/kg/day | NOAEL [3]: < 3 mg/kg/day | LOAEL [4, 26]: > 60 mg/kg/day | NOAEL [4, 26]: ≥ 60 mg/kg/day | LEL [4, 27]: 6 mg/kg/day | NEL [4, 27]: < 6 mg/kg/day | LOAEL [5, 28]: > 50 mg/kg/day | NEL [5, 28]: 0.5 mg/kg/day | NOAEL [5, 28]: ≥ 50 mg/kg/day | LEL ([5]; systemic / in life observation / water consumption / water consumption + systemic / organ weight / kidney / relative to body weight + …): 5 mg/kg/day | LEL [6]: 6 mg/kg/day | LOAEL [6]: 6 mg/kg/day | NEL [6]: < 6 mg/kg/day | NOAEL [6]: < 6 mg/kg/day | LEL [7, 29]: 0.00147 mg/kg/day | NEL [7, 29]: < 0.00147 mg/kg/day | LOAEL [7, 30]: > 0.118 mg/kg/day | NOAEL [7, 30]: ≥ 0.118 mg/kg/day | LEL [8, 31]: 15 ppm | LOAEL [8, 31]: > 15 ppm | NEL [8, 31]: 5 ppm | NOAEL [8, 31]: ≥ 15 ppm | LEL [8, 32]: 5 ppm | LOAEL [8, 32]: > 15 ppm | NEL [8, 32]: < 5 ppm | NOAEL [8, 32]: ≥ 15 ppm | LOAEL [9, 33]: > 120 mg/kg/day | NOAEL [9, 33]: ≥ 120 mg/kg/day | LEL [9, 34]: 30 mg/kg/day | NEL [9, 34]: < 30 mg/kg/day | LEL [9, 35]: 120 mg/kg/day | LOAEL [9, 35]: > 120 mg/kg/day | NEL [9, 35]: 60 mg/kg/day | NOAEL [9, 35]: ≥ 120 mg/kg/day | LEL [9, 36]: 30 mg/kg/day | NEL [9, 36]: < 30 mg/kg/day | LOAEL [9, 37]: > 120 mg/kg/day | NOAEL [9, 37]: ≥ 120 mg/kg/day | LEL [10, 38]: 8 mg/kg/day | NEL [10, 38]: < 8 mg/kg/day | NOAEL ([10]; systemic / pathology microscopic / kidney / regeneration + systemic / clinical chemistry / [other] / [other] + systemic / clinical chemistry…): 32 mg/kg/day | LOAEL ([10]; systemic / pathology microscopic / kidney / regeneration + systemic / organ weight / kidney / absolute + systemic / in life observation / …): 63 mg/kg/day | LOAEL [11, 39]: > 900 ppm | NOAEL [11, 39]: ≥ 900 ppm | LEL [11, 40]: 100 ppm | NEL [11, 40]: < 100 ppm | LOAEL [12, 41]: > 50 ppm | NOAEL [12, 41]: ≥ 50 ppm | LEL [12, 42]: 5 ppm | NEL [12, 42]: < 5 ppm | LOAEL [13, 43]: > 30 mg/kg/day | NOAEL [13, 43]: ≥ 30 mg/kg/day | LEL [13, 44]: 3 mg/kg/day | NEL [13, 44]: < 3 mg/kg/day | LOAEL [14, 45]: > 1.5 ppm | NOAEL [14, 45]: ≥ 1.5 ppm | LEL [14, 46]: 0.5 ppm | NEL [14, 46]: < 0.5 ppm

[CH3][Sn+]([CH3])[CH3].[OH-] [Trimethyltin hydroxide]
LOAEL [15, 47]: > 6 mg/kg/day | NOAEL [15, 47]: ≥ 6 mg/kg/day | LEL [15, 48]: 5 mg/kg/day | NEL [15, 48]: < 5 mg/kg/day | LEL [16]: 6 mg/kg/day | LOAEL [16]: > 6 mg/kg/day | NEL [16]: < 6 mg/kg/day | NOAEL [16]: ≥ 6 mg/kg/day | LEL [17]: 6 mg/kg/day | LOAEL [17]: > 6 mg/kg/day | NEL [17]: 5 mg/kg/day | NOAEL [17]: ≥ 6 mg/kg/day | LOAEL [18, 49]: > 6 mg/kg/day | NOAEL [18, 49]: ≥ 6 mg/kg/day | LEL [18, 50]: 4 mg/kg/day | NEL [18, 50]: < 4 mg/kg/day

CC(C)COC(=O)c1ccccc1C(=O)OCC(C)C [Diisobutyl phthalate]
LEL [19]: 600 mg/kg/day | LOAEL [19]: > 600 mg/kg/day | NEL [19]: < 600 mg/kg/day | NOAEL [19]: ≥ 600 mg/kg/day

CC(C)(C)OOC(=O)c1ccccc1 [tert-Butyl perbenzoate]
LOAEL [20, 51]: > 1110 mg/kg/day | NEL [20, 51]: 140 mg/kg/day | NOAEL [20, 51]: ≥ 1110 mg/kg/day | LEL ([20]; systemic / pathology microscopic / stomach / hyperplasia + systemic / organ weight / stomach / nos): 278 mg/kg/day | LEL [21, 52]: 30 mg/kg/day | NEL [21, 52]: < 30 mg/kg/day | LOAEL ([21]; systemic / pathology microscopic / stomach / hyperplasia + systemic / pathology microscopic / stomach / inflammation): 250 mg/kg/day | NOAEL ([21]; systemic / pathology microscopic / stomach / hyperplasia + systemic / pathology microscopic / stomach / inflammation + systemic / in life …): 125 mg/kg/day | LEL [22, 52]: 60 mg/kg/day | LOAEL [22, 52]: 60 mg/kg/day | NEL [22, 53]: 30 mg/kg/day | NOAEL [22, 53]: 30 mg/kg/day
